Reference: EP0316212B1 (priority 1987, dated 1989)

Experiments:
[1] = molecular target: reverse transcriptase du HIV1 (Human immunodeficiency virus type 1 group M subtype B, UniProt P04585); test: Reverse transcriptase activity of HIV1 incubated with NP derivatives, tested immediately; format: biochemical; details: témoin virus 11924
Procedure: (§1) La technique de culture et de titrage de la reverse-transcriptase du HIV est rappelée ci-après : Des lymphocytes humains, préalablement activés par la PHA (phytohémagglutinine) sont incubés dans un milieu nutritif (RPMI 1640 + sérum de veau foetal + antibiotiques + β-mercaptoéthanol 10⁻⁵M + 2»g/ml polybrene + sérum anti-interféron 1/2000 + IL2 10%). Après centrifugation, le culot cellulaire est mis en présence du HIV1 (10.000 cpm/10⁶ cellules) pendant 1 heure à 37°. Après lavage et centrifugation, les cellules sont resuspendues dans du milieu nutritif. Les surnageants de culture cellulaire sont suivis pendant plusieurs jours pour leur activité reverse transcriptase. Ils sont centrifugés 7 minutes à 95000 tours et le culot est lysé par du Triton® 0,1% (produit Touzart et Matignon). Un mélange réactionnel est ajouté (Tris, DTT (dithiothreitol), MgCl₂, KCl, PolyA, Oligo dT, ³HTTP, H₂O) et après 1 heure d'incubation à 37°C, la réaction est arrêtée avec du pyrophosphate de sodium et de l'acide nucléique de levure est ajouté pour aider la précipitation. De l'acide trichloracétique (TCA) est ajouté et la solution est laissée 15 minutes à 4°C. Après filtration sous vide avec des filtres millipores 0.45 »m et plusieurs lavages avec du TCA (0.5%), on procède au rinçage à l'éthanol, au sèchage en étuve 37° et enfin au comptage.
Le HIV1 est incubé 1 heure à 37° en présence d'AcN (D23, 621, N5-12), d'anticorps anti-NP (TNP11) ou en présence des dérivés NP (DNP-glycine et DNP-lysine). L'activité reverse transcriptase du HIV1 est testée immédiatement (cas des dérivés DNP-glycine et DNP-lysine). Alternativement, des lymphocytes humains sont infectés par le HIV1 préincubé avec les produits à tester, et la culture cellulaire est observée pendant 3 semaines par titrage de la reverse transcriptase. Durant cette période les cultures des lymphocytes humains ne contiennent pas d'anticorps ni d'antigène.

HIV1 = HIV1 infection of human lymphocytes preincubated with antibodies or NP derivatives, reverse transcriptase in supernatants; format: cell-based; details: for activité reverse transcriptase (surnageants de culture): dérivés NP, concentration not given
Procedure: as §1
Les lymphocytes humains, préalablement activés par la PHA, sont incubés en présence des AcN, des anticorps anti-NP et des dérivés NP (DNP-glycine, DNP-lysine) pendant une nuit à 37°C. Le lendemain, le culot cellulaire est mis en présence du HIV1 pendant 1 heure à 37°C au bain-marie et les cellules sont resuspendues dans du milieu nutritif en présence des produits à tester. Les surnageants de culture sont testés pour l'activité reverse transcriptase pendant 3 semaines.

In the case of `N[C@@H](CCCCNc1ccc([N+](=O)[O-])cc1[N+](=O)[O-])C(=O)O` [DNP-lysine, DNP-Lysine], the Activité reverse transcriptase ([1]; 10^-3M) is reported as 4652, the Activité reverse transcriptase ([1]; 10^-6M) is reported as 3932 and the Activité reverse transcriptase ([1]; 10^-7M) is reported as 7240. The Activité reverse transcriptase ([1]; 10^-9M) was 9262, the “activité reverse transcriptase (surnageants de culture)” value (HIV1; 3 jours après l'infection, témoin virus 562) was 936 and the “activité reverse transcriptase (surnageants de culture)” value (HIV1; 6 jours après l'infection, témoin virus 1274) was 958. For the same molecule, the “activité reverse transcriptase (surnageants de culture)” value (HIV1; 10 jours après l'infection, témoin virus 94474) was 1102, the “activité reverse transcriptase (surnageants de culture)” value (HIV1; 13 jours après l'infection, témoin virus 63944) was 1466 and the “activité reverse transcriptase (surnageants de culture)” value (HIV1; 18 jours après l'infection, témoin virus 73368) was 958. The “activité reverse transcriptase (surnageants de culture)” value (HIV1; 20 jours après l'infection, témoin virus 26840) was 1268 and the “activité reverse transcriptase / infectivité virale par rapport au témoin virus (result in words)” value (HIV1; lymphocytes incubés avec les produits) was “peuvent conduire à une inhibition totale de l'infectivité virale”.
